Where two headings read alike, the source gives them in different places.

Assay [1] deals with IKZF1 (Homo sapiens (Human), UniProt Q13422+Q96SW2). The assay is described as follows: IKZF1 HiBit Assay (HEK293T Flp-in-HiBiT-IKZF1 stable cell line). It counts as cell-based. The settings on record: for DC50: read-out: IKZF1 HiBit degradation DC50; for Dmax: HEK-293T, read-out: IKZF1 HiBit degradation Dmax. The procedure: The HiBiT protein tagging system was applied to modified Cells: modified HEK293T Flp-in-HiBiT-IKZF1 stable cell line (polyclone) via a CRISPR/Cas9—mediated insertion of the HiBiT peptide tag (Promega™) to the N-terminus of the IKZF2 gene locus (Neon™ transfection system).
Test compound from 10 mM and reference compound (CC-92480 from 50 mM and I-57 from 10 mM) are diluted at 3 folds for 11 doses. 25 nL of diluted compound is transferred to assay plates (Corning3571) using ECHO550, the final DMSO concentration @0.1%. The cells are seeded in 3000/[…]/well to compound plates. The plates are incubated for 6 hrs in TC incubator. The amount of Nano-Glo® HiBiT lytic reagent needed to perform the desired experiments is calculated. The Nano-Glo® HiBiT lytic reagent is brought to room temperature. The LgBiT protein is diluted to 1:100 and the Nano-Glo® HiBiT lytic substrate is brought to 1:50 into an appropriate volume of room temperature Nano-Glo® HiBiT lytic buffer. […] of the detection reagent (or without LgBiT) is dispensed to corresponding well according to the layout. The plate is shaked for 10 mins at room temperature. After briefly centrifuging, the plate is read on Envision. At the indicated timepoints, the Nano-Glo® HiBiT lytic detection system (Promega™) was utilized for detecting bioluminescence of the HiBiT tag in treated cells: abundance of the tag is proportionate to the level of luminescence. Following normalization to DMSO, dose-response curves were plotted (GraphPad Prism) to determine the concentration points at which 50% of HiBiT-Ikaros degradation was achieved by each compound. The extent of degradation (range of luminescence) from the highest to lowest concentration points was calculated to determine the Dm.

Assay [2] addresses IKZF2 (Homo sapiens (Human), UniProt Q96SW2+Q9UKS7). The assay is described as follows: IKZF2 HiBit Assay (HEK293T Flp-in-HiBiT cells). It counts as cell-based. The settings on record: for DC50: read-out: IKZF2 HiBit degradation DC50; for Dmax: HEK-293T, read-out: IKZF2 HiBit degradation Dmax. The procedure:
The HiBiT protein tagging system was applied to modified HEK293T Flp-in-HiBiT cells (polyclone) via a CRISPR/Cas9—mediated insertion of the HiBiT peptide tag (Promega™) to the N-terminus of the IKZF2 gene locus (Neon™ transfection system). Test and reference compounds are diluted from 1 mM at 3 folds for 11 doses. 25 nL of diluted compound is transferred to assay plates (Corning3570) using ECHO550, the final DMSO concentration @0.1%. The cells are seeded in 3000/[…]/well to compound plates. It is then incubated for 6 hrs in TC incubator. The amount of Nano-Glo® HiBiT lytic reagent needed to perform the desired experiments is calculated. The Nano-Glo® HiBiT lytic reagent is brought to room temperature. The LgBiT protein is diluted to 1:100 and the Nano-Glo® HiBiT lytic substrate is diluted to 1:50 into an appropriate volume of room temperature Nano-Glo® HiBiT lytic buffer. […] of the detection reagent (or without LgBiT) is dispensed to corresponding well according to the layout. The plate is then shaked for 10 mins at room temperature. After briefly centrifuge, the plate is read on Envision. At the indicated timepoints, the Nano-Glo® HiBiT lytic detection system (Promega™) was utilized for detecting bioluminescence of the HiBiT tag in treated cells: abundance of the tag is proportionate to the level of luminescence. Following normalization to DMSO, dose-response curves were plotted (GraphPad Prism) to determine the concentration points at which 50% of HiBiT-Helios degradation was achieved by each compound. The extent of degradation (range of luminescence) from the highest to lowest concentration points was calculated to determine the Dmax.

Assay [3] has as its target His tagged CRBN+DDB−DLS7+CXU4 (Homo sapiens (Human), UniProt Q96SW2). The assay is described as follows: IC50 Measurements for Binding to CRBN/DDBI (HTRF). The conditions noted are these: Cy5-labeled Thalidomide probe, one hour incubation. Background: Time-resolved FRET reads energy transfer from a long-lived donor to a nearby acceptor.
Setting [4] is: HEK293T Flp-in-HiBiT-IKZF1 cells, 6 hrs.
Setting [5] is: HEK293T Flp-in-HiBiT cells, 6 hrs.

Sequence of His tagged CRBN+DDB−DLS7+CXU4 (Q96SW2 whole entry): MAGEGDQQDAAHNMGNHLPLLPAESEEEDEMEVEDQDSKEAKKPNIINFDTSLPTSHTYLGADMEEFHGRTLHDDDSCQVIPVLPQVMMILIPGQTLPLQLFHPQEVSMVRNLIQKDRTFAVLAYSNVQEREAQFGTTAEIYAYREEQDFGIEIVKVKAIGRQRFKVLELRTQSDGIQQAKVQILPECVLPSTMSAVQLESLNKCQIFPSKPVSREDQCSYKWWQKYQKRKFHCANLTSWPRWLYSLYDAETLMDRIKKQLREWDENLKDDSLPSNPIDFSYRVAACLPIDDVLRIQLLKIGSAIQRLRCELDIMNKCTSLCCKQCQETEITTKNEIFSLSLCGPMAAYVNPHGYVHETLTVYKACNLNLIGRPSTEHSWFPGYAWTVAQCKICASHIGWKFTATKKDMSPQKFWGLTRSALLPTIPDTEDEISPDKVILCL
Sequence of His tagged CRBN+DDB−DLS7+CXU4 (Q16531 whole entry partner): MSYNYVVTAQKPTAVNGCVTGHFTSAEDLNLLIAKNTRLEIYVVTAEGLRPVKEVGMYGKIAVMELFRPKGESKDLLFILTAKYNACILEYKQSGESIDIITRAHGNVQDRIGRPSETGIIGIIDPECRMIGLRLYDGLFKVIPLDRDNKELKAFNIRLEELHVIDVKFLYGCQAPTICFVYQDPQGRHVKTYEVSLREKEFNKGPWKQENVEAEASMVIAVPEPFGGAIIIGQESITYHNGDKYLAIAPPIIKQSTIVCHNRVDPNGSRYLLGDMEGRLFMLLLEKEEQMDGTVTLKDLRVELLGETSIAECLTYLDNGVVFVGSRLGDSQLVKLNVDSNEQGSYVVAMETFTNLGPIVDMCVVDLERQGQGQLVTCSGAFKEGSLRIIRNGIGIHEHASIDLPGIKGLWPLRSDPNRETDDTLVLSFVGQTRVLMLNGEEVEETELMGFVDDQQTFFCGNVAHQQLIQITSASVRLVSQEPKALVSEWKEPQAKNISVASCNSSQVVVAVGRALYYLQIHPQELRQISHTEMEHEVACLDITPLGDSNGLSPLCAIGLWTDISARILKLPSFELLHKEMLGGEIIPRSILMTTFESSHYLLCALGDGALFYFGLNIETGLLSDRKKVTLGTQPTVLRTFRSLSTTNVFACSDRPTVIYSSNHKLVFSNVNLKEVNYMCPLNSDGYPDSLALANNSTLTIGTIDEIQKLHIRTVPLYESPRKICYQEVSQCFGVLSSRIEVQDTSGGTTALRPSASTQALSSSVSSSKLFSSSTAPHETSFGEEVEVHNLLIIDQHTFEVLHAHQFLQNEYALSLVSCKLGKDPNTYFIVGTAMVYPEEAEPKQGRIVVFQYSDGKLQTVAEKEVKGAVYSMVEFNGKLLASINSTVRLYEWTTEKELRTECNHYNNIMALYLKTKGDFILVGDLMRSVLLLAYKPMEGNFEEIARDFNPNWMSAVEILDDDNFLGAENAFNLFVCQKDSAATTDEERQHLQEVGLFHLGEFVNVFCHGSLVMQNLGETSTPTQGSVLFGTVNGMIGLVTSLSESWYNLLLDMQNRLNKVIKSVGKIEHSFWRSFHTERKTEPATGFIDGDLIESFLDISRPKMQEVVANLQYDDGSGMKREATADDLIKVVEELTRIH
Sequence of IKZF2 (Q9UKS7 whole entry): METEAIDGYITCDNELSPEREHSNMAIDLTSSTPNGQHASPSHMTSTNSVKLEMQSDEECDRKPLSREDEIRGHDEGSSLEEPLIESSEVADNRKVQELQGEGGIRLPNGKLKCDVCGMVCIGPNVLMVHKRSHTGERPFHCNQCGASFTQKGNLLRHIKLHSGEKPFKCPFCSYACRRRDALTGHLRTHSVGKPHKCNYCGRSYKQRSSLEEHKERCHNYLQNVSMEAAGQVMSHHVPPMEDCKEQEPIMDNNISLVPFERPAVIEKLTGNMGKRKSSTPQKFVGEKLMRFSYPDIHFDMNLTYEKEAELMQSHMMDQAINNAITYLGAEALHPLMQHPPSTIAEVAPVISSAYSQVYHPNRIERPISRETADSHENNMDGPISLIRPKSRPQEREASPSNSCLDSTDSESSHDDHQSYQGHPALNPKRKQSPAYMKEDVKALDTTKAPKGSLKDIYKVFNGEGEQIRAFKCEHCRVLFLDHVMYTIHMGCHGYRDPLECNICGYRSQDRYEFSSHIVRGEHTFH
Sequence of IKZF2 (Q96SW2 whole entry): as the sequence (Q96SW2 whole entry) above
Sequence of IKZF2 (Q16531 whole entry partner): as the sequence (Q16531 whole entry partner) above
Sequence of IKZF1 (Q13422 whole entry): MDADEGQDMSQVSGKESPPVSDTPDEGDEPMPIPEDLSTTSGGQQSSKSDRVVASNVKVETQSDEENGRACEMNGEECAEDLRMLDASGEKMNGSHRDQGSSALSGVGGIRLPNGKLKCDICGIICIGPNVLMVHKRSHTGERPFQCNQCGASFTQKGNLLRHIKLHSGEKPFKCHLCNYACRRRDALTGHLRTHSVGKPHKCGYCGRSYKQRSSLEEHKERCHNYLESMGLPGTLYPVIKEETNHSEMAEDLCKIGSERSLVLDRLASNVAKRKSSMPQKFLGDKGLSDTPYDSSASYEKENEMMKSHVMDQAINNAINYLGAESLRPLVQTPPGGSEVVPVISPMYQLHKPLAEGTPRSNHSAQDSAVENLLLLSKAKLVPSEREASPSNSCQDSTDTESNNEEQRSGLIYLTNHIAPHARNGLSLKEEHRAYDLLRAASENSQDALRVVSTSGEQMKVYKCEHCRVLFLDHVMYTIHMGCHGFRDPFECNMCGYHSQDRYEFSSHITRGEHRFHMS
Sequence of IKZF1 (Q96SW2 whole entry): as the sequence (Q96SW2 whole entry) above
Sequence of IKZF1 (Q16531 whole entry partner): as the sequence (Q16531 whole entry partner) above

As a reminder, the DC50 is the midpoint of the concentration-degradation curve. In general, Dmax refers to the greatest extent of degradation seen. By IC50 is commonly meant the midpoint of a concentration-inhibition curve. A lower IC50 goes with higher potency. Regarding `O=C1CC[C@H](N2Cc3c(ccc4c3OCC43CCN(Cc4cnn(S(=O)(=O)c5ccccc5Cl)c4)CC3(F)F)C2=O)C(=O)N1` (stereo partly drawn) [Compound B29, (3S)-3-(1′-((1-((2-chlorophenyl)sulfonyl)-1H-pyrazol-4-yl)methyl)-3′,3′-difluoro-6-oxo-6,8-dihydro-2H,7H-spiro[furo[2,3-e]isoindole-3,4′-piperidin]-7-yl)piperidine-2,6-dione], in assay [1] (setting [4]), the DC50 lay within 1 to 10 nM and the Dmax is more than 40%. In addition, in assay [2] (setting [5]), the DC50 was less than 1 nM and the Dmax was more than 80%. Further, the IC50 in assay [3] is less than 100 nM.

On to `[2H]C([2H])(c1cccc(-c2cnn(C)c2)c1)N1CCC2(CC1)COc1c2ccc2c1CN([C@H]1CCC(=O)NC1=O)C2=O` [Compound B11, (S)-3-(1′-((3-(1-methyl-1H-pyrazol-4-yl)phenyl)methyl-d2)-6-oxo-6,8-dihydro-2H,7H-spiro[furo[2,3-e]isoindole-3,4′-piperidin]-7-yl)piperidine-2,6-dione], for which the DC50 in assay [1] (setting [4]) is more than 1000 nM; in assay [2] (setting [5]), 1 to 10 nM. The values for the Dmax in assay [1] (setting [4]) and in assay [2] (setting [5]) were less than 20% and more than 80%, respectively. In assay [3], this compound yielded an IC50 of less than 100 nM.

On to `O=C1CC[C@H](N2Cc3c(ccc4c3OCC43CCN(Cc4cc(-c5ccc(Cl)cc5)ns4)CC3)C2=O)C(=O)N1` [Compound B3, (S)-3-(1′-((3-(4-chlorophenyl)isothiazol-5-yl)methyl)-6-oxo-6,8-dihydro-2H,7H-spiro[furo[2,3-e]isoindole-3,4′-piperidin]-7-yl)piperidine-2,6-dione], for which, in assay [1] (setting [4]), the DC50 was more than 1000 nM and the Dmax was less than 20%. In addition, in assay [2] (setting [5]), the DC50 lay within 10 to 100 nM and the Dmax fell in the range of 60 to 80%. For the same compound, in assay [3], the IC50 is less than 100 nM.

In the case of `[2H]C([2H])(c1ccc2cnn(C)c2c1)N1CCC2(CC1)COc1c2ccc2c1CN([C@H]1CCC(=O)NC1=O)C2=O` [Compound B8, (S)-3-(1′-((1-methyl-1H-indazol-6-yl)methyl-d2)-6-oxo-6,8-dihydro-2H,7H-spiro[furo[2,3-e]isoindole-3,4′-piperidin]-7-yl)piperidine-2,6-dione], the DC50 in assay [1] (setting [4]) was more than 1000 nM; in assay [2] (setting [5]) it was 1 to 10 nM. Moreover, the Dmax in assay [1] is less than 20%; in assay [2], 60 to 80%. Besides, the IC50 in assay [3] lay in the range of 100 to 500 nM.

For the compound `O=C1CCC(N2Cc3c(ccc4c3OCC43CCN(Cc4ccccc4)CC3O)C2=O)C(=O)N1` (centres unmarked) [Compound B22, 3-(1′-benzyl-3′-hydroxy-6-oxo-6,8-dihydro-2H,7H-spiro[furo[2,3-e]isoindole-3,4′-piperidin]-7-yl)piperidine-2,6-dione], in assay [1] (setting [4]), the DC50 was more than 1000 nM and the Dmax was less than 20%. For the same compound, in assay [2] (setting [5]), the DC50 is 10 to 100 nM and the Dmax lay within 20 to 40%. In assay [3], this compound came in with an IC50 of 100 to 500 nM.

Consider `Cc1cc2c(c3c1C(=O)N([C@H]1CCC(=O)NC1=O)C3)OCC21CCN(Cc2cccc(-c3cnn(C)c3)c2)CC1` [Compound B20, (S)-3-(5-methyl-1′-(3-(1-methyl-1H-pyrazol-4-yl)benzyl)-6-oxo-6,8-dihydro-2H,7H-spiro[furo[2,3-e]isoindole-3,4′-piperidin]-7-yl)piperidine-2,6-dione], for which the DC50 in assay [1] (setting [4]) and in assay [2] (setting [5]) was more than 1000 nM in each case. Also, the figures for the Dmax in assay [1] (setting [4]) and in assay [2] (setting [5]) were less than 20% and 20 to 40%, respectively. Moreover, in assay [3], the IC50 was in the range of 500 to 1000 nM.

For `O=C1CC[C@H](N2Cc3c(ccc4c3OCC43CCN(Cc4ccc5c(c4)CC(=O)N5)CC3(F)F)C2=O)C(=O)N1` (stereo partly drawn) [Compound B28, (3S)-3-(3′,3′-difluoro-6-oxo-1′-((2-oxoindolin-5-yl)methyl)-6,8-dihydro-2H,7H-spiro[furo[2,3-e]isoindole-3,4′-piperidin]-7-yl)piperidine-2,6-dione], in assay [1] (setting [4]), the DC50 was more than 1000 nM and the Dmax is less than 20%. Besides, in assay [2] (setting [5]), the DC50 lay within 1 to 10 nM and the Dmax is 60 to 80%. In addition, in assay [3], the IC50 was in the range of 100 to 500 nM.

For `Cn1cc2cc(CN3CCC4(COc5c4ccc4c5CN([C@H]5CCC(=O)NC5=O)C4=O)C(F)(F)C3)ccc2n1` (stereo partly drawn) [Compound B37, (3S)-3-(3′,3′-difluoro-1′-((2-methyl-2H-indazol-5-yl)methyl)-6-oxo-6,8-dihydro-2H,7H-spiro[furo[2,3-e]isoindole-3,4′-piperidin]-7-yl)piperidine-2,6-dione], in assay [1] (setting [4]), the DC50 was more than 1000 nM and the Dmax is less than 20%. In assay [2] (setting [5]), the DC50 fell in the range of 1 to 10 nM and the Dmax lay within 60 to 80%. For the same compound, the IC50 in assay [3] was less than 100 nM.

For `[2H]C([2H])(c1ccc2cn(C)nc2c1)N1CCC2(CC1)COc1c2ccc2c1CN([C@H]1CCC(=O)NC1=O)C2=O` [Compound B7, (S)-3-(1′-((2-methyl-2H-indazol-6-yl)methyl-d2)-6-oxo-6,8-dihydro-2H,7H-spiro[furo[2,3-e]isoindole-3,4′-piperidin]-7-yl)piperidine-2,6-dione], in assay [1] (setting [4]), the 50% degradation concentration (DC50) is more than 1000 nM and the Dmax is less than 20%. In assay [2] (setting [5]), the DC50 lay within 1 to 10 nM and the Dmax was in the range of 60 to 80%. This compound displayed an IC50 in assay [3] of 100 to 500 nM.

As to `O=C1CC[C@H](N2Cc3c(ccc4c3OCC43CCN(Cc4cc(-c5ccc(Cl)cc5)no4)CC3)C2=O)C(=O)N1` [Compound B2, (S)-3-(1′-((3-(4-chlorophenyl)isoxazol-5-yl)methyl)-6-oxo-6,8-dihydro-2H,7H-spiro[furo[2,3-e]isoindole-3,4′-piperidin]-7-yl)piperidine-2,6-dione], in assay [1] (setting [4]), the DC50 lay in the range of 10 to 100 nM and the Dmax is 20 to 40%. In assay [2] (setting [5]), the DC50 was 1 to 10 nM and the Dmax lay within 60 to 80%. Besides, the IC50 in assay [3] was in the range of 1000 to 5000 nM.

On to `O=C1CC[C@H](N2Cc3c4c(cc(Cl)c3C2=O)C2(CCN(Cc3cccc5cn[nH]c35)CC2)CO4)C(=O)N1` [Compound B18, (S)-3-(1′-((1H-indazol-7-yl)methyl)-5-chloro-6-oxo-6,8-dihydro-2H,7H-spiro[furo[2,3-e]isoindole-3,4′-piperidin]-7-yl)piperidine-2,6-dione], for which, in assay [1] (setting [4]), the DC50 is more than 1000 nM and the Dmax is less than 20%. In addition, in assay [2] (setting [5]), the DC50 was more than 1000 nM and the Dmax was less than 20%. Also, in assay [3], the IC50 fell in the range of 100 to 500 nM.

With `[2H]C([2H])(c1cccc(-c2cnn(C(F)F)c2)c1)N1CCC2(CC1)COc1c2ccc2c1CN([C@H]1CCC(=O)NC1=O)C2=O` [Compound B10, (S)-3-(1′-((3-(1-(difluoromethyl)-1H-pyrazol-4-yl)phenyl)methyl-d2)-6-oxo-6,8-dihydro-2H,7H-spiro[furo[2,3-e]isoindole-3,4′-piperidin]-7-yl) piperidine-2,6-dione], the values for the DC50 in assay [1] (setting [4]) and in assay [2] (setting [5]) were more than 1000 nM and 1 to 10 nM, respectively. In addition, the Dmax was less than 20% in assay [1] (setting [4]) and 60 to 80% in assay [2] (setting [5]). The same compound yielded an IC50 in assay [3] of 100 to 500 nM.

With `[2H]C([2H])([2H])n1cc(-c2cccc(CN3CCC4(CC3)COc3c4ccc4c3CN([C@H]3CCC(=O)NC3=O)C4=O)c2)cn1` [Compound B12, (S)-3-(1′-(3-(1-(methyl-d3)-1H-pyrazol-4-yl)benzyl)-6-oxo-6,8-dihydro-2H,7H-spiro[furo[2,3-e]isoindole-3,4′-piperidin]-7-yl)piperidine-2,6-dione], in assay [1] (setting [4]), the 50% degradation concentration (DC50) is more than 1000 nM and the Dmax is less than 20%. In assay [2] (setting [5]), the DC50 lay within 1 to 10 nM and the Dmax was more than 80%. Also, in assay [3], the IC50 lay within 100 to 500 nM.

Source of the values: patent US20250215012A1, “IKZF2 DEGRADERS AND USES THEREOF” (REGENTS OF THE UNIVERSITY OF MICHIGAN, priority 2022, published 2025).
